The source of these data is article PMC10586260 (ACS Omega, 2023).

A word on the CC50: it is the concentration giving 50% cytotoxicity. High values mean better tolerance by the cells, low ones harm at low concentration. A word on the Kd: it is the equilibrium constant for the complex coming apart. Read a high Kd as a looser complex. For orientation: Cmax means the highest concentration seen after dosing.

“And” between values parts separate entries of the source, which are not always exact repeats. Identical values can stand only once. “Also recorded” adds a separate entry of the source. Like-named read-outs stand apart in the source and are kept apart here.

In one data set the test system is PfCam3.1^R539T (MRA1240). Put plainly: SYBR green I antiplasmodial growth inhibition assay. Type of data set: cell-based. The settings on record: Plasmodium falciparum.
Data set [1] is described as follows: MTT cytotoxicity assay. The class given is cell-based, Human. To be noted: human, HUH-7 cells. In general terms: Tetrazolium dyes change colour on reduction, which living cells bring about.
The test system of another data set is HUH-7. The data set can be described thus: MTT cytotoxicity assay. The class given is cell-based, Human. To be noted: CC50PfHUH7/IC50PfINDO.
The subject of a further data set is HEK293. The data set can be described thus: MTT cytotoxicity assay. The settings on record: for Selectivity index A: CC50 HEK293/IC50PfINDO; for selectivity index for P. falciparum parasites: human kidney and liver cell lines vs parasite. Type of data set: cell-based, Human.
A short description of data set [2]: MTT cytotoxicity assay. The class given is cell-based, Human. To be noted: human, HEK293 cells.
In data set [3] the test system is PfINDO. Put plainly: SYBR green I antiplasmodial growth inhibition assay. Type of data set: cell-based. To be noted: Plasmodium falciparum.
The subject of another data set is Pf3D7. Described as above. Type of data set: cell-based. The settings on record: Plasmodium falciparum.
A further data set concerns PfINDO late schizonts. The data set can be described thus: Egress/invasion inhibition assay. The class given is cell-based, Plasmodium falciparum. To be noted: segmental schizonts, 8 h at 2× IC50, then 48 h drug free.
In data set [4] the test system is PfINDO. Put plainly: Giemsa microscopy of parasite morphology after treatment at IC50. Type of data set: cell-based, Plasmodium falciparum. The settings on record: ring-stage parasites (6–12 h p.i.) treated at IC50 up to 57 h.
In the next data set the target is T1, PfGAP50 (Plasmodium falciparum, UniProt Q8I2X3).
T1 sequence (Q8I2X3 24-365 limits assumed): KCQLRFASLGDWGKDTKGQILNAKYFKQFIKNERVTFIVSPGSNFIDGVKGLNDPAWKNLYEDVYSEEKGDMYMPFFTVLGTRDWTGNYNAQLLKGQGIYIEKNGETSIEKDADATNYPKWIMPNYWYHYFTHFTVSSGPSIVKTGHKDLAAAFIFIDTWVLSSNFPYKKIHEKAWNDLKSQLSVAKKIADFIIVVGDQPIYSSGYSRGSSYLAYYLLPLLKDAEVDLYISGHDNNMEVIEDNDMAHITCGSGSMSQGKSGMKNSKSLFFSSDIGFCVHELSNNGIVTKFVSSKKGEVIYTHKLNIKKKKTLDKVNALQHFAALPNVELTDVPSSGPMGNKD
The data set can be described thus: Surface plasmon resonance, PfGAP50 immobilized on CM5 chip, 1:1 binding model. The settings on record: KD (SPR, GAP50), 1:1 Langmuir binding model.

For data set [5], the system named is P. falciparum strains (Pf3D7, PfINDO, PfCam3.1^R539T). Put plainly: SYBR green I antiplasmodial assay, several strains stated together. Type of data set: cell-based. To be noted: Plasmodium falciparum, read-out: IC50s against all three strains of Plasmodium.
The conditions of data set [6]: 700 mg dosage in humans, MDR-TB treatment; cited from earlier work.
For data set [7], the system named is PfCam3.1^R539T early rings (0–3 h p.i.). The data set can be described thus: Ring-stage survival assay. Type of data set: cell-based, Plasmodium falciparum. The settings on record: 10× IC50, 6 h treatment, 66 h recovery.
For the next data set, the system named is P. bergheiANKA. Put plainly: In vivo antimalarial study. Also noted: species or system mice. The settings on record: 50 mg/kg oral, 4 consecutive days.
Another data set relates to P. falciparum (MRA1240). The data set can be described thus: Fixed-ratio drug combination assay. The settings on record: in combination with PYR, MFQ, and ART. The class given is cell-based, Plasmodium falciparum.
The mark [8] stands for this setting: read-out: IC50 (nM) against Pf strains Cam3.1^R539T.
The mark [9] stands for this setting: read-out: IC50 (nM) against Pf strains INDO.
The mark [10] stands for this setting: 3D7, read-out: IC50 (nM) against Pf strains 3D7.

In the case of `CCN(CC)CCCC(C)Nc1ccnc2cc(Cl)ccc12` (centres unmarked) [Chloroquine], the IC50 worked out at 55 ± 4 nM in the data set on PfCam3.1^R539T (MRA1240) (setting [8]), 290 ± 20 nM with PfINDO [3] (setting [9]) and 14 ± 5 nM in the data set on Pf3D7 (setting [10]). Further, the 50% cytotoxic concentration (CC50) at 24 h in “MTT cytotoxicity assay [1]” stood at 58.5 ± 4.73 µM; in “MTT cytotoxicity assay [2]”, 45.7 ± 3.12 µM. Moreover, the “Selectivity index B” value with HUH-7 amounted to 201.86. In the data set with HEK293, the “Selectivity index A” value is 157.55.
On to `CC(C)(C)NC(=O)[C@@H]1CN(Cc2cnc3occc3c2)CCN1C[C@@H](O)C[C@@H](Cc1ccccc1)C(=O)N[C@H]1c2ccccc2C[C@H]1O` [MMV1782353, (2S)-1-[(2S,4R)-4-benzyl-2-hydroxy-5-[[(1S,2R)-2-hydroxy-2,3-dihydro-1H-inden-1-yl]amino]-5-oxopentyl]-N-tert-butyl-4-(furo[2,3-b]pyridin-5-ylmethyl)piperazine-2-carboxamide], for which the “effect on merozoite egress and invasion” value is “only partial inhibition of parasite invasion” in the data set on PfINDO late schizonts and “slowed the schizont rupture” with PfINDO late schizonts (listed as 1782353). Also, the “effect on parasite morphology and development” value in the data set on PfINDO [4] was “permitted Pf development”. Moreover, the IC50 with PfCam3.1^R539T (MRA1240) (setting [8]) is 14300 ± 210 nM; in the data set with PfCam3.1^R539T (MRA1240) (read-out: IC50 PfCam3.1^R539T), over 1000 nM; in the data set on PfINDO [3] (setting [9]) it was 562 ± 171 nM; with PfINDO [3] (read-out: IC50 PfINDO), under 1000 nM; in the data set on Pf3D7 (setting [10]), 670 ± 70.2 nM; with Pf3D7 (read-out: IC50 Pf3D7), under 1000 nM. Besides, the half-maximal cytotoxic concentration (CC50) at 24 h in “MTT cytotoxicity assay [1]” and in the data set “MTT cytotoxicity assay [2]” was over 200 µM in each case. The “selectivity index for P. falciparum parasites” value in the data set on HEK293 was over 100 fold.
Turning to `Oc1cccc(C(Nc2nccs2)c2ccc3cccnc3c2O)c1` (centres unmarked) [MMV642550, 7-[(3-hydroxyphenyl)-(1,3-thiazol-2-ylamino)methyl]quinolin-8-ol], the “effect on merozoite egress and invasion” value in the data set with PfINDO late schizonts was “only partial inhibition of parasite invasion”; in the data set on PfINDO late schizonts (listed as 642550), “slowed the schizont rupture”. The same compound yielded a Kd on PfGAP50 of under 75 µM. Also, the “effect on parasite morphology and development” value with PfINDO [4] was “permitted Pf development”. Moreover, the IC50 with PfCam3.1^R539T (MRA1240) (setting [8]) is 1400 ± 97 nM; in the data set with PfINDO [3] (setting [9]), 986 ± 159 nM; in [5] it was at most 1.5 µM; in the data set on Pf3D7 (setting [10]) it was 393 ± 6.45 nM. Besides, the half-maximal cytotoxic concentration (CC50) at 24 h in the data set “MTT cytotoxicity assay [1]” and in “MTT cytotoxicity assay [2]” was over 200 µM each time. Further, in the data set on HEK293, the “selectivity index for P. falciparum parasites” value is given as over 100 fold.
For `COc1nc2ccc(Br)cc2cc1[C@@H](c1ccccc1)[C@@](O)(CCN(C)C)c1cccc2ccccc12` [Bedaquiline, (1R,2S)-1-(6-bromo-2-methoxyquinolin-3-yl)-4-(dimethylamino)-2-naphthalen-1-yl-1-phenylbutan-2-ol], the peak concentration (Cmax) in data set [6] was 6470 ng/mL. Moreover, in the data set with PfINDO late schizonts, the “effect on merozoite egress and invasion” value is listed as “schizontocidal activity; also recorded: completely prevented invasion/schizont rupture”. The “effect on early rings in RSA” value in data set [7] is reported as “showed activity against early rings”. Further, the Kd at PfGAP50 is < 75 µM and 9.27 µM. Also, in the data set on PfINDO [4], the “effect on parasite morphology and development” value is “permitted parasites to develop normally while preventing merozoites from invading”. The values for the IC50 (with PfCam3.1^R539T (MRA1240) (setting [8]); in data set [5]; in the data set with Pf3D7 (setting [10])) were 769 ± 73.6 nM, at most 1.5 µM and 1210 ± 22.4 nM, respectively. Besides, the half-maximal cytotoxic concentration (CC50) at 24 h in “MTT cytotoxicity assay [1]” and in “MTT cytotoxicity assay [2]” was over 400 µM in each case. For the same compound, the “mice surviving / cured” value in the data set on P. bergheiANKA was “three out of seven”. Further, in the data set on P. bergheiANKA, the “suppression of % parasitemia” value was “substantial suppression of parasitemia; also recorded: complete suppression of % parasitemia by day 19”. The “interaction by average ∑FIC” value in the data set with P. falciparum (MRA1240) is reported as “additive (∑FIC 1–2.0)”.
For the compound `NC(N)=Nc1ccc(-c2ccc(-c3ccc(N=C(N)N)c(Cl)c3)o2)cc1Cl` [MMV688271, 2-[2-chloro-4-[5-[3-chloro-4-(diaminomethylideneamino)phenyl]furan-2-yl]phenyl]guanidine], in the data set on PfINDO late schizonts, the “effect on merozoite egress and invasion” value is “schizontocidal activity; also recorded: completely prevented invasion/schizont rupture”. Also, at PfGAP50, the Kd is < 75 µM and 20 µM. In addition, the “effect on parasite morphology and development” value with PfINDO [4] was “inhibited schizont egression”. Further, the IC50 with PfCam3.1^R539T (MRA1240) (setting [8]) was 387 ± 39.6 nM; in the data set on PfINDO [3] (setting [9]) it was 284 ± 24.7 nM; in data set [5] it was at most 1.5 µM; in the data set on Pf3D7 (setting [10]), 258 ± 54.2 nM. For the same compound, the figures for the CC50 at 24 h in the data set “MTT cytotoxicity assay [1]” and in “MTT cytotoxicity assay [2]” were 29.7 ± 3.76 µM and 119 ± 33.7 µM, respectively. Further, the “Selectivity index B” value in the data set on HUH-7 stood at 119.08. In the data set on HEK293, the “Selectivity index A” value came to 478.31. Also, the “selectivity index for P. falciparum parasites” value in the data set with HEK293 is over 100 fold. Further, the “interaction by average ∑FIC” value in the data set with P. falciparum (MRA1240) is “additive (∑FIC 1–2.0)”.
Take `C[C@@H]1CC[C@H]2[C@@H](C)C(=O)O[C@@H]3O[C@@]4(C)CC[C@@H]1[C@]32OO4` [Artemisinin]: the results for the IC50 in the data set with PfCam3.1^R539T (MRA1240) (setting [8]), in the data set on PfINDO [3] (setting [9]) and in the data set with Pf3D7 (setting [10]) were 15 ± 2 nM, 10 ± 2 nM and 13 ± 4 nM, respectively. Moreover, the half-maximal cytotoxic concentration (CC50) at 24 h in the data set “MTT cytotoxicity assay [1]” and in the data set “MTT cytotoxicity assay [2]” was over 100 µM throughout.
Take `O=C1[C@H](CC[C@H](O)c2ccc(F)cc2)[C@@H](c2ccc(O)cc2)N1c1ccc(F)cc1` [MMV1581377, (3R,4S)-1-(4-fluorophenyl)-3-[(3S)-3-(4-fluorophenyl)-3-hydroxypropyl]-4-(4-hydroxyphenyl)azetidin-2-one]: the Kd at PfGAP50 is 1.16 µM.
For the compound `N=C(N)NCCCCC(=O)Nc1cc(C(F)(F)F)cc(NC(=O)c2cc(C(=O)Nc3cc(C(F)(F)F)cc(NC(=O)CCCCNC(=N)N)c3O[C@@H]3CCNC3)ncn2)c1O[C@@H]1CCNC1` [Brilacidin, 4-N,6-N-bis[3-(5-carbamimidamidopentanoylamino)-2-[(3R)-pyrrolidin-3-yl]oxy-5-(trifluoromethyl)phenyl]pyrimidine-4,6-dicarboxamide], the “effect on merozoite egress and invasion” value in the data set with PfINDO late schizonts was “completely prevented invasion/schizont rupture”. In addition, the “effect on early rings in RSA” value in data set [7] was “cause retardation in the growth cycle but are not able to kill early rings”. The equilibrium dissociation constant (Kd) on PfGAP50 was < 75 µM and 2.81 µM. Further, the “effect on parasite morphology and development” value in the data set on PfINDO [4] is on record as “partial suppression of invasion”. Moreover, the IC50 is 728 ± 65.2 nM in the data set with PfCam3.1^R539T (MRA1240) (setting [8]), 634 ± 153 nM in the data set with PfINDO [3] (setting [9]), at most 1.5 µM in [5] and 405 ± 63 nM in the data set with Pf3D7 (setting [10]). Moreover, the CC50 at 24 h in “MTT cytotoxicity assay [1]” and in the data set “MTT cytotoxicity assay [2]” was over 200 µM in each case. Moreover, the “selectivity index for P. falciparum parasites” value in the data set with HEK293 is over 100 fold. In addition, the “interaction by average ∑FIC” value with P. falciparum (MRA1240) is given as “additive (∑FIC 1–2.0)”.
